# Literature values in patent US20110151017A1, “OPHTHALMIC SOLUTIONS WITH IMPROVED DISINFECTION PROFILES” (priority 2009, published 2011).
# Conditions: aqueous solution, forming tetrahydroxyborate
compound,measurement,value
OB(O)O [Boric acid],Ka,5.8e-10 mol/L
